The nature of this data set: CEST contrast of surface-conjugated polymeric nanoparticles and DYD peptide. Type of data set: physicochemical. Here is the method:
Polymeric particle preparation: The peptide contrast agent, propargylglycine-W-(DYD)6-NH2, was synthesized on a microwave-assisted peptide synthesizer Libertyl (CEM, USA). The CEST nanoparticles were then prepared by standard coupling chemistry. NH2PEG-N3 was coupled to carboxylates on the surface of polystyrene (PS) particles in the presence of EDC and NHS in 200 mM sodium borate buffer pH 7.8 at RT. Propargylglycine-W-(DYD)6-NH2 peptide was coupled with PS-PEG-N3 in the presence of catalytic amount of CuAcAc, TBTA, and excess ascorbic acid in sodium phosphate buffer pH 7, under nitrogen, using click chemistry. Biodegradable CEST nanoparticles based on the polymer of poly(lactic-co-glycolic) acid-co-PEG (PLGA-PEG) were synthesized using a similar procedure and formulated using a oil-in-water emulsion method.
The nanoparticles are suitable for tumor delivery. As the interior of the nanoparticles has reduced water accessibility compared to liposomes, the CEST agent was conjugated to the surface of the particle as shown in FIGS. 5(a) through 5(c). Two versions were prepared, one with a short (0.6 kDa) and a second with a longer PEG spacer (5.6 kDa). […] The DYD peptide provides contrast centered around 2.5 ppm from water, which should allow discrimination with the BA liposomes through multi-color CEST imaging.

Take “propargylglycine-W-(DYD)6-NH2 [DYD peptide]”: the “CEST contrast centre, offset from water” value was “around 2.5 ppm”.

For the origin of these results see patent publication US10568975B2, “Nanoparticles for magnetic resonance imaging tracking and methods of making and using thereof” (The Johns Hopkins University, priority 2013, dated 2020).
